From patent US7109338B2, “1,2-disubstituted 1,4-dihydro-4-oxoquinoline compounds” (priority 1999, dated 2006)
Values after ≈ are worked out from the molar mass of the structure shown.

Columns and labels:
[1] = tested on: human rhinovirus type 1B (HRV 1B, B632); assay: Anti-rhinovirus activity (MTT), HRV1B; format: cell-based; conditions: HeLa (Ohio strain) cells, MTT method, 33° C.
[2] = tested on: echovirus type 11 (Echo 11, Gregory); assay: In vitro anti-picornavirus activity (MTT), Echo 11; format: cell-based; conditions: HeLa-S3 cells, MTT method, 37° C.
HRV 2 (HGP) = assay: Anti-rhinovirus activity (MTT), HRV2; format: cell-based, human rhinovirus; conditions: HeLa (Ohio strain) cells, MTT method, 33° C.
HeLa-S3 cells = assay: Cytotoxicity (MTT, without virus), HeLa-S3; conditions: HeLa-S3, no virus, incubated for 4 days
HeLa cells = assay: Cytotoxicity (MTT, without virus), HeLa; conditions: HeLa, no virus, incubated for 4 days
[3] = tested on: Poliovirus type 1 (Polio 1, Sabin); assay: microbe, parasite or virus in culture; format: cell-based
HeLa (Ohio strain)cells = assay: Cytotoxicity (MTT, without virus), HeLa(Ohio); conditions: HeLa(Ohio), no virus, incubated for 4 days
[4] = tested on: coxsackievirus type B4 (CB4,JVB); assay: In vitro anti-picornavirus activity (MTT), CB4; format: cell-based; conditions: HeLa cells, MTT method, 37° C.
HRV 89 (41617-Gallo) = assay: Anti-rhinovirus activity (MTT), HRV89; format: cell-based, human rhinovirus; conditions: HeLa (Ohio strain) cells, MTT method, 33° C.
[5] = tested on: coxsackievirus type A7 (CA7); assay: In vitro anti-picornavirus activity (MTT), CA7; format: cell-based; conditions: HeLa-S3 cells, MTT method, 37° C.

Row | SMILES | IC50 HRV1B [1] [µg/mL] | IC50 Echo 11 [2] [µg/mL] | IC50 HRV2 (HRV 2 (HGP)) [µg/mL] | Cytotoxicity CC50 HeLa-S3 (HeLa-S3 cells) [µg/mL] | Cytotoxicity CC50 HeLa (HeLa cells) [µg/mL] | IC50 Polio 1 [3] [µg/mL] | Cytotoxicity CC50 HeLa(Ohio) (HeLa (Ohio strain)cells) [µg/mL] | IC50 CB4 [4] [µg/mL] | IC50 HRV89 (HRV 89 (41617-Gallo)) [µg/mL] | IC50 CA7 [5] [µg/mL]
1 | Cc1c(-c2ccccc2)n(C)c2cc(C(C)C)c(OC(C)C)cc2c1=O [Compound A258] | 0.62 (≈ 1.77 µM) | 0.23 (≈ 0.658 µM) | 0.45 (≈ 1.29 µM) | >5 | 4.5 | 0.62 (≈ 1.77 µM) | 4.9 | >1.6 | 0.66 (≈ 1.89 µM) | 4.9 (≈ 14 µM)
2 | CCn1c(-c2cccs2)c(C)c(=O)c2cc(C(C)C)ccc21 [Compound A311] | 1.0 (≈ 3.21 µM) | 0.42 (≈ 1.35 µM) | 0.53 (≈ 1.7 µM) | >10 | 6.8 | 0.67 (≈ 2.15 µM) | >10 | 2.0 (≈ 6.42 µM) | 1.2 (≈ 3.85 µM) | 3.3 (≈ 10.6 µM)
3 | CC(C)c1ccc2c(c1)c(=O)cc(-c1ccc(Br)s1)n2C [Compound A316] | 0.56 (≈ 1.55 µM) | 0.39 (≈ 1.08 µM) | 0.29 (≈ 0.8 µM) | >5 | >5 | 0.78 (≈ 2.15 µM) | >5 | 1.1 (≈ 3.04 µM) | 0.27 (≈ 0.745 µM) | 1.2 (≈ 3.31 µM)
4 | CCn1c(-c2ccccc2)c(C)c(=O)c2c(Cl)c(OCC(C)C)ccc21 [Compound A179] | 0.86 (≈ 2.33 µM) | 0.20 (≈ 0.541 µM) | 0.87 (≈ 2.35 µM) | >4 | >4 | 0.29 (≈ 0.784 µM) | >4 | 1.2 (≈ 3.24 µM) | 0.37 (≈ 1 µM) | 2.4 (≈ 6.49 µM)
5 | Cc1cc2c(c(C)c1OCC(C)C)c(=O)c(C)c(-c1ccccc1)n2C [Compound A286] | 0.87 (≈ 2.49 µM) | 0.57 (≈ 1.63 µM) | 0.23 (≈ 0.658 µM) | >5 | >5 | 1.3 (≈ 3.72 µM) | >5 | 1.4 (≈ 4.01 µM) | 0.61 (≈ 1.75 µM) | >5
6 | CC(C)c1ccc2c(c1)c(=O)cc(-c1cccs1)n2C [Compound A308] | 0.81 (≈ 2.86 µM) | 0.31 (≈ 1.09 µM) | 0.36 (≈ 1.27 µM) | 16 | 11 | 0.87 (≈ 3.07 µM) | 11 | 1.6 (≈ 5.65 µM) | 0.94 (≈ 3.32 µM) | 3.9 (≈ 13.8 µM)
7 | CC(C)c1ccc2c(c1)c(=O)cc(-c1ccco1)n2C [Compound A303] | 1.4 (≈ 5.24 µM) | 0.83 (≈ 3.1 µM) | 0.97 (≈ 3.63 µM) | >20 | >20 | 1.4 (≈ 5.24 µM) | >20 | 3.6 (≈ 13.5 µM) | 1.9 (≈ 7.11 µM) | 6.5 (≈ 24.3 µM)
8 | COc1ccc(-n2c(-c3ccccc3)c(C)c(=O)c3cc(C(C)C)ccc32)cc1 [Compound A326] | >2.5 | >2.5 | 0.48 (≈ 1.25 µM) | >2.5 | >2.5 | >2.5 | >2.5 | >2.5 | 0.067 (≈ 0.175 µM) | >2.5
9 | Cc1cc2c(c(C)c1OCC(C)C)c(=O)cc(-c1ccccc1)n2C [Compound A285] | 0.68 (≈ 2.03 µM) | 0.2 (≈ 0.596 µM) | 0.18 (≈ 0.537 µM) | >4 | >4 | 0.69 (≈ 2.06 µM) | >4 | 1.9 (≈ 5.66 µM) | 0.46 (≈ 1.37 µM) | 3.1 (≈ 9.24 µM)
10 | CCn1c(-c2ccccc2)c(C)c(=O)c2cc(NCC(C)C)ccc21.Cl [Compound A160] | 0.73 | 0.27 | 0.45 | >5 | >5 | 0.55 | >5 | 2.9 | 0.78 | 2.7
11 | CCn1c(-c2nccs2)cc(=O)c2cc(C(C)C)ccc21 [Compound A319] | 1.5 (≈ 5.03 µM) | 0.81 (≈ 2.71 µM) | 0.80 (≈ 2.68 µM) | >50 | 35 | 2.0 (≈ 6.7 µM) | 32 | 9.4 (≈ 31.5 µM) | 2.0 (≈ 6.7 µM) | 8.9 (≈ 29.8 µM)
12 | CCn1c(-c2ccc(Br)s2)cc(=O)c2cc(C(C)C)ccc21 [Compound A317] | 0.82 (≈ 2.18 µM) | 0.35 (≈ 0.93 µM) | 0.43 (≈ 1.14 µM) | >5 | >5 | 0.81 (≈ 2.15 µM) | >5 | 1.1 (≈ 2.92 µM) | 0.40 (≈ 1.06 µM) | 2.6 (≈ 6.91 µM)
13 | CCn1c(-c2ccccc2)c(C)c(=O)c2c(C)c(OCC(C)C)ccc21 [Compound A188] | 0.81 (≈ 2.32 µM) | 0.27 (≈ 0.773 µM) | 0.33 (≈ 0.944 µM) | >5 | >5 | 0.31 (≈ 0.887 µM) | >5 | 1.1 (≈ 3.15 µM) | 0.25 (≈ 0.715 µM) | 1.2 (≈ 3.43 µM)
14 | CC(C)c1ccc2c(c1)c(=O)cc(-c1ccn(C)c1)n2C [Compound A306] | 0.89 (≈ 3.17 µM) | 0.49 (≈ 1.75 µM) | 0.73 (≈ 2.6 µM) | 26 | 14 | 0.83 (≈ 2.96 µM) | 25 | 2.1 (≈ 7.49 µM) | 0.88 (≈ 3.14 µM) | 2.9 (≈ 10.3 µM)
15 | Cc1ccc(-n2c(-c3ccccc3)c(C)c(=O)c3cc(C(C)C)ccc32)cc1 [Compound A325] | >2.5 | >2.5 | 0.066 (≈ 0.18 µM) | >2.5 | >2.5 | >2.5 | >2.5 | >2.5 | 0.022 (≈ 0.0599 µM) | >2.5
16 | Cc1ccc(-c2cc(=O)c3cc(C(C)C)ccc3n2C)s1 [Compound A314] | 0.56 (≈ 1.88 µM) | 0.51 (≈ 1.71 µM) | 0.55 (≈ 1.85 µM) | >10 | 7.0 | 0.60 (≈ 2.02 µM) | >10 | 0.82 (≈ 2.76 µM) | 0.38 (≈ 1.28 µM) | 1.5 (≈ 5.04 µM)
17 | CCn1c(-c2ccccc2)c(C)c(=O)c2cc(OCC(C)C)c(C)cc21 [Compound A235] | 0.75 (≈ 2.15 µM) | 0.27 (≈ 0.773 µM) | 0.24 (≈ 0.687 µM) | >4 | >4 | 0.72 (≈ 2.06 µM) | >4 | 2.9 (≈ 8.3 µM) | 0.35 (≈ 1 µM) | 2.8 (≈ 8.01 µM)
18 | CCn1c(-c2ccccc2)c(C)c(=O)c2cc(OCC(C)C)ccc21 [Compound A130] | 0.90 (≈ 2.68 µM) | 0.32 (≈ 0.954 µM) | 0.65 (≈ 1.94 µM) | >4 | >4 | 0.86 (≈ 2.56 µM) | >4 | >4 | 0.72 (≈ 2.15 µM) | 0.17 (≈ 0.507 µM)
19 | COc1c(OCC(C)C)ccc2c1c(=O)c(C)c(-c1ccccc1)n2C [Compound A196] | 5.9 (≈ 16.8 µM) | 0.44 (≈ 1.25 µM) | 1.8 (≈ 5.12 µM) | >10 | >10 | 1.1 (≈ 3.13 µM) | >10 | 1.9 (≈ 5.41 µM) | 0.86 (≈ 2.45 µM) | 9.7 (≈ 27.6 µM)
20 | CCn1c(-c2ccccc2)c(C)c(=O)c2cc(NCC(C)C)ccc21.O [Compound A159] | 0.78 | 0.26 | 0.48 | >5 | >5 | 0.51 | >5 | 3.0 | 0.73 | 2.7
